The subject of this series is rodent lifetime carcinogenesis bioassay, tumor incidence TD50. Kind of series: chronic cancer bioassays in animals – CPDB, compiled studies (AID 1745844).

Active and inactive are the calls of the source. No rule for the calls is given here.

As a reminder, the TD50 is the dose at which the toxic effect under study appears in half of the subjects. In the case of `O=NN1CCC(=O)NC1=O`, the TD50 runs as follows: (rat, strain MRC-Wistar, females, in drinking water, site: any site (literature study), lesion: several types, types named in the paper, dosed 41 weeks, study length 70 weeks) 0.13 mg/kg/day; (rat, strain MRC-Wistar, females, in drinking water, site: liver, lesion: hepatocellular carcinoma, dosed 41 weeks, study length 70 weeks) 0.104 mg/kg/day; (rat, strain MRC-Wistar, females, in drinking water, site: liver, lesion: several types, types named in the paper, dosed 41 weeks, study length 70 weeks) 0.104 mg/kg/day; (rat, strain MRC-Wistar, males, in drinking water, site: any site (literature study), lesion: several types, types named in the paper, dosed 41 weeks, study length 70 weeks) 0.125 mg/kg/day; (rat, strain MRC-Wistar, males, in drinking water, site: liver, lesion: hepatocellular carcinoma, dosed 41 weeks, study length 70 weeks) 0.0932 mg/kg/day; (rat, strain MRC-Wistar, males, in drinking water, site: liver, lesion: several types, types named in the paper, dosed 41 weeks, study length 70 weeks) 0.0932 mg/kg/day.
Consider `ClC(Cl)Br`, for which the TD50 was 62.9 mg/kg/day (mouse, strain B6C3F1, females, by gavage, site: any site (literature study), lesion: several types, types named in the paper, dosed 102 weeks, study length 105 weeks); 28.9 mg/kg/day (mouse, strain B6C3F1, females, by gavage, site: liver, lesion: hepatocellular adenoma + hepatocellular carcinoma + neoplastic nodule, dosed 102 weeks, study length 105 weeks); 28.9 mg/kg/day (mouse, strain B6C3F1, females, by gavage, site: liver, lesion: hepatocellular adenoma + hepatocellular carcinoma, dosed 102 weeks, study length 105 weeks); 36 mg/kg/day (mouse, strain B6C3F1, females, by gavage, site: liver, lesion: hepatocellular adenoma, dosed 102 weeks, study length 105 weeks); 144 mg/kg/day (mouse, strain B6C3F1, females, by gavage, site: liver, lesion: hepatocellular carcinoma, dosed 102 weeks, study length 105 weeks); 644 mg/kg/day (mouse, strain B6C3F1, females, by gavage, site: lung, lesion: alveolar/bronchiolar adenoma + alveolar/bronchiolar carcinoma, dosed 102 weeks, study length 105 weeks). The TD50 is 132 mg/kg/day (mouse, strain B6C3F1, females, by gavage, site: multiple organs + spleen, lesion: malignant lymphoma, histiocytic type, dosed 102 weeks, study length 105 weeks); 336 mg/kg/day (mouse, strain B6C3F1, males, by gavage, site: kidney, lesion: tubular-cell adenocarcinoma, dosed 102 weeks, study length 104 weeks); 137 mg/kg/day (mouse, strain B6C3F1, males, by gavage, site: kidney, lesion: tubular-cell adenoma + tubular-cell adenocarcinoma, dosed 102 weeks, study length 104 weeks); 215 mg/kg/day (mouse, strain B6C3F1, males, by gavage, site: kidney, lesion: tubular-cell adenoma, dosed 102 weeks, study length 104 weeks); 74.2 mg/kg/day (mouse, strain B6C3F1, males, by gavage, site: multiple organs, lesion: malignant lymphoma, lymphocytic type, dosed 102 weeks, study length 104 weeks); 84.8 mg/kg/day (rat, strain Fischer 344, females, by gavage, site: colon + kidney, lesion: adenocarcinoma, NOS + adenomatous polyp, NOS + tubular-cell adenoma + tubular-cell adenocarcinoma, dosed 102 weeks, study length 104 weeks). Moreover, the TD50 (rat, strain Fischer 344, females, by gavage, site: colon, lesion: adenocarcinoma, NOS + adenomatous polyp, NOS, dosed 102 weeks, study length 104 weeks) is 200 mg/kg/day; the TD50 (rat, strain Fischer 344, females, by gavage, site: colon, lesion: adenocarcinoma, NOS, dosed 102 weeks, study length 104 weeks) was 411 mg/kg/day; the TD50 (rat, strain Fischer 344, females, by gavage, site: colon, lesion: adenomatous polyp, NOS, dosed 102 weeks, study length 104 weeks) was 364 mg/kg/day; the TD50 (rat, strain Fischer 344, females, by gavage, site: kidney, lesion: tubular-cell adenocarcinoma, dosed 102 weeks, study length 104 weeks) is 272 mg/kg/day; the TD50 (rat, strain Fischer 344, females, by gavage, site: kidney, lesion: tubular-cell adenoma + tubular-cell adenocarcinoma, dosed 102 weeks, study length 104 weeks) was 143 mg/kg/day; the TD50 (rat, strain Fischer 344, females, by gavage, site: kidney, lesion: tubular-cell adenoma, dosed 102 weeks, study length 104 weeks) was 351 mg/kg/day. Besides, the TD50 reads like this: (rat, strain Fischer 344, males, by gavage, site: any site (literature study), lesion: several types, types named in the paper, dosed 102 weeks, study length 104 weeks) 267 mg/kg/day; (rat, strain Fischer 344, males, by gavage, site: colon + kidney + rectum, lesion: adenocarcinoma, NOS + adenomatous polyp, NOS + tubular-cell adenoma + tubular-cell adenocarcinoma, dosed 102 weeks, study length 104 weeks) 30.3 mg/kg/day; (rat, strain Fischer 344, males, by gavage, site: colon + rectum, lesion: adenocarcinoma, NOS + adenomatous polyp, NOS, dosed 102 weeks, study length 104 weeks) 30.7 mg/kg/day; (rat, strain Fischer 344, males, by gavage, site: colon + rectum, lesion: adenocarcinoma, NOS, dosed 102 weeks, study length 104 weeks) 35.6 mg/kg/day; (rat, strain Fischer 344, males, by gavage, site: colon + rectum, lesion: adenomatous polyp, NOS, dosed 102 weeks, study length 104 weeks) 55.6 mg/kg/day; (rat, strain Fischer 344, males, by gavage, site: kidney, lesion: tubular-cell adenocarcinoma, dosed 102 weeks, study length 104 weeks) 213 mg/kg/day. Moreover, the TD50 is, setting by setting: (rat, strain Fischer 344, males, by gavage, site: kidney, lesion: tubular-cell adenoma + tubular-cell adenocarcinoma, dosed 102 weeks, study length 104 weeks) 152 mg/kg/day; (rat, strain Fischer 344, males, by gavage, site: kidney, lesion: tubular-cell adenoma, dosed 102 weeks, study length 104 weeks) 583 mg/kg/day; (rat, strain Fischer 344, males, by gavage, site: liver, lesion: hepatocellular adenoma + hepatocellular carcinoma + neoplastic nodule, dosed 102 weeks, study length 104 weeks) 747 mg/kg/day; (rat, strain Fischer 344, males, by gavage, site: lung, lesion: alveolar/bronchiolar adenoma + alveolar/bronchiolar carcinoma, dosed 102 weeks, study length 104 weeks) 366 mg/kg/day; (rat, strain Fischer 344, males, by gavage, site: lung, lesion: alveolar/bronchiolar adenoma, dosed 102 weeks, study length 104 weeks) 447 mg/kg/day; (rat, strain Fischer 344, males, by gavage, site: tunica vaginalis, lesion: mesothelioma, NOS, dosed 102 weeks, study length 104 weeks) 350 mg/kg/day. The TD50 was 544 mg/kg/day (rat, strain Wistar, females, in drinking water, site: liver, lesion: neoplastic nodule, dosed 187 weeks, study length 187 weeks) and 911 mg/kg/day (rat, strain Wistar, males, in drinking water, site: pituitary gland, lesion: one or several types, types not named, dosed 182 weeks, study length 182 weeks).
In the case of `CNNC`, the TD50 (hamster, strain Syrian Golden, females, in drinking water, site: blood vessels, lesion: angiosarcoma, dosed 67 weeks, study length 67 weeks) is 0.156 mg/kg/day; the TD50 (hamster, strain Syrian Golden, females, in drinking water, site: cecum, lesion: adenocarcinoma, dosed 67 weeks, study length 67 weeks) was 2.84 mg/kg/day; the TD50 (hamster, strain Syrian Golden, females, in drinking water, site: cecum, lesion: polypoid adenoma, dosed 67 weeks, study length 67 weeks) stood at 2.08 mg/kg/day; the TD50 (hamster, strain Syrian Golden, females, in drinking water, site: cecum, lesion: several types, types named in the paper, dosed 67 weeks, study length 67 weeks) is 0.864 mg/kg/day; the TD50 (hamster, strain Syrian Golden, females, in drinking water, site: heart, lesion: angiosarcoma, dosed 67 weeks, study length 67 weeks) was 2.13 mg/kg/day; the TD50 (hamster, strain Syrian Golden, females, in drinking water, site: liver, lesion: angiosarcoma, dosed 67 weeks, study length 67 weeks) is 0.156 mg/kg/day. Moreover, the TD50 is 1.4 mg/kg/day (hamster, strain Syrian Golden, females, in drinking water, site: liver, lesion: hepatoma, dosed 67 weeks, study length 67 weeks); 0.917 mg/kg/day (hamster, strain Syrian Golden, females, in drinking water, site: liver, lesion: several types, types named in the paper, dosed 67 weeks, study length 67 weeks); 0.395 mg/kg/day (hamster, strain Syrian Golden, females, in drinking water, site: lung, lesion: angiosarcoma, dosed 67 weeks, study length 67 weeks); 1.03 mg/kg/day (hamster, strain Syrian Golden, females, in drinking water, site: muscle, lesion: angiosarcoma, dosed 67 weeks, study length 67 weeks); 18.4 mg/kg/day (hamster, strain Syrian Golden, females, in drinking water, site: pancreas, lesion: angiosarcoma, dosed 67 weeks, study length 67 weeks); 0.211 mg/kg/day (hamster, strain Syrian Golden, males, in drinking water, site: blood vessels, lesion: angiosarcoma, dosed 71 weeks, study length 71 weeks). The TD50 runs as follows: (hamster, strain Syrian Golden, males, in drinking water, site: cecum, lesion: polypoid adenoma, dosed 71 weeks, study length 71 weeks) 2.42 mg/kg/day; (hamster, strain Syrian Golden, males, in drinking water, site: heart, lesion: angiosarcoma, dosed 71 weeks, study length 71 weeks) 2.49 mg/kg/day; (hamster, strain Syrian Golden, males, in drinking water, site: liver, lesion: angiosarcoma, dosed 71 weeks, study length 71 weeks) 0.211 mg/kg/day; (hamster, strain Syrian Golden, males, in drinking water, site: liver, lesion: several types, types named in the paper, dosed 71 weeks, study length 71 weeks) 2.05 mg/kg/day; (hamster, strain Syrian Golden, males, in drinking water, site: lung, lesion: angiosarcoma, dosed 71 weeks, study length 71 weeks) 0.685 mg/kg/day; (hamster, strain Syrian Golden, males, in drinking water, site: muscle, lesion: angiosarcoma, dosed 71 weeks, study length 71 weeks) 1.36 mg/kg/day. Besides, the TD50 (hamster, strain Syrian Golden, males, in drinking water, site: pancreas, lesion: angiosarcoma, dosed 71 weeks, study length 71 weeks) was 18.6 mg/kg/day; the TD50 (mouse, strain Swiss albino, females, in drinking water, site: liver, lesion: hepatoma, dosed 52 weeks, study length 52 weeks) is 13.9 mg/kg/day; the TD50 (mouse, strain Swiss albino, females, in drinking water, site: lung, lesion: adenoma, dosed 52 weeks, study length 52 weeks) is 0.559 mg/kg/day; the TD50 (mouse, strain Swiss albino, males, in drinking water, site: blood vessels, lesion: angiosarcoma, dosed 52 weeks, study length 52 weeks) is 0.102 mg/kg/day; the TD50 (mouse, strain Swiss albino, males, in drinking water, site: fat, lesion: angiosarcoma, dosed 52 weeks, study length 52 weeks) worked out at 0.215 mg/kg/day; the TD50 (mouse, strain Swiss albino, males, in drinking water, site: liver, lesion: angiosarcoma, dosed 52 weeks, study length 52 weeks) worked out at 0.377 mg/kg/day. Further, the TD50 was 1.81 mg/kg/day (mouse, strain Swiss albino, males, in drinking water, site: lung, lesion: several types, types named in the paper, dosed 52 weeks, study length 52 weeks); 1.02 mg/kg/day (mouse, strain Swiss albino, males, in drinking water, site: lymph node, lesion: angiosarcoma, dosed 52 weeks, study length 52 weeks); 0.203 mg/kg/day (mouse, strain Swiss albino, males, in drinking water, site: muscle, lesion: angiosarcoma, dosed 52 weeks, study length 52 weeks); 0.337 mg/kg/day (mouse, strain Swiss albino, males, in drinking water, site: paraepididymal tissue, lesion: angiosarcoma, dosed 52 weeks, study length 52 weeks); 0.18 mg/kg/day (mouse, strain Swiss albino, males, in drinking water, site: pararenal tissue, lesion: angiosarcoma, dosed 52 weeks, study length 52 weeks); 0.781 mg/kg/day (mouse, strain Swiss albino, males, in drinking water, site: subcutaneous tissue, lesion: angiosarcoma, dosed 52 weeks, study length 52 weeks). Under “mouse, strain Swiss albino, females, in drinking water, site: blood vessels, lesion: angiosarcoma, dosed 52 weeks, study length 52 weeks”, the carcinogen call was “positive”.
As for `NNC(N)=O`, the TD50 is, setting by setting: (mouse, strain Swiss albino, females, in drinking water, site: blood vessels, lesion: angioma, dosed 118 weeks, study length 118 weeks) 975 mg/kg/day; (mouse, strain Swiss albino, females, in drinking water, site: blood vessels, lesion: angiosarcoma, dosed 118 weeks, study length 118 weeks) 798 mg/kg/day; (mouse, strain Swiss albino, females, in drinking water, site: blood vessels, lesion: several types, types named in the paper, dosed 118 weeks, study length 118 weeks) 395 mg/kg/day; (mouse, strain Swiss albino, females, in drinking water, site: liver, lesion: several types, types named in the paper, dosed 118 weeks, study length 118 weeks) 798 mg/kg/day; (mouse, strain Swiss albino, females, in drinking water, site: lung, lesion: adenoma, dosed 118 weeks, study length 118 weeks) 333 mg/kg/day; (mouse, strain Swiss albino, females, in drinking water, site: lung, lesion: several types, types named in the paper, dosed 118 weeks, study length 118 weeks) 223 mg/kg/day. Further, the TD50 is 1420 mg/kg/day (inactive) (mouse, strain Swiss albino, males, in drinking water, site: liver, lesion: hepatoma, dosed 118 weeks, study length 118 weeks); 933 mg/kg/day (mouse, strain Swiss albino, males, in drinking water, site: liver, lesion: several types, types named in the paper, dosed 118 weeks, study length 118 weeks); 745 mg/kg/day (mouse, strain Swiss albino, males, in drinking water, site: lung, lesion: adenoma, dosed 118 weeks, study length 118 weeks); 833 mg/kg/day (mouse, strain Swiss albino, males, in drinking water, site: lung, lesion: several types, types named in the paper, dosed 118 weeks, study length 118 weeks).

The values above are taken from PubChem BioAssay AID1745844 (Carcinogenic Potency Database (CPDB), 2022).
